Laboratory results from the NIST ThermoML archive (doi:10.1021/je700260f).

Conditions: 283.14 K, Liquid, Vibrating tube method

FC(C(F)(F)F)C(F)(F)F [1,1,1,2,3,3,3-heptafluoropropane]
Conditions	mass density [kg/m3]
933 kPa	1452.5
962 kPa	1452.6
988 kPa	1452.7
1029 kPa	1453
1062 kPa	1453.3
1091 kPa	1453.4
1127 kPa	1453.7
1160 kPa	1453.8
1193 kPa	1454
1227 kPa	1454.2
1264 kPa	1454.5
1297 kPa	1454.5
1331 kPa	1454.9
1362 kPa	1454.9
1400 kPa	1455.2
1438 kPa	1455.5
1476 kPa	1455.6
1508 kPa	1455.9
1543 kPa	1456
1576 kPa	1456.3
1621 kPa	1456.5
1656 kPa	1456.8
1696 kPa	1456.8
1725 kPa	1457.1
1760 kPa	1457.3
1800 kPa	1457.5
1829 kPa	1457.7
1869 kPa	1457.9
1899 kPa	1458.1
1939 kPa	1458.4
1978 kPa	1458.6
2027 kPa	1458.8
2062 kPa	1459.1
2097 kPa	1459.2
2137 kPa	1459.6
2167 kPa	1459.6
2214 kPa	1460
2245 kPa	1460.1
2282 kPa	1460.4
2317 kPa	1460.6
2349 kPa	1460.8
2385 kPa	1460.9
2431 kPa	1461.1
2457 kPa	1461.1
2499 kPa	1461.5
2536 kPa	1461.6
2578 kPa	1461.9
2615 kPa	1462.1
3150 kPa	1465
3179 kPa	1465.2
3208 kPa	1465.5
3236 kPa	1465.6
3261 kPa	1465.6
3292 kPa	1465.8
3316 kPa	1465.9
3349 kPa	1466.2
3370 kPa	1466.4
3404 kPa	1466.4
3440 kPa	1466.6
3467 kPa	1466.9
3502 kPa	1467
3528 kPa	1467
3555 kPa	1467.3
3582 kPa	1467.3
3606 kPa	1467.5
3630 kPa	1467.6
3997 kPa	1469.6
4037 kPa	1469.8
4059 kPa	1469.8
4089 kPa	1470.1
4112 kPa	1470.1
4138 kPa	1470.4
4161 kPa	1470.5
4194 kPa	1470.6
4220 kPa	1470.8
4246 kPa	1470.9
4268 kPa	1471.1
4295 kPa	1471.2
4326 kPa	1471.4
4370 kPa	1471.5
4397 kPa	1471.6
4431 kPa	1471.8
4454 kPa	1472
4485 kPa	1472.1
4521 kPa	1472.3
4552 kPa	1472.4
4587 kPa	1472.7
4611 kPa	1472.8
4642 kPa	1472.9
4662 kPa	1473.1
4691 kPa	1473.2
4714 kPa	1473.3
4746 kPa	1473.5
4770 kPa	1473.6
4833 kPa	1473.9
4872 kPa	1474.1
4976 kPa	1474.5
5454 kPa	1477.2
5490 kPa	1477.3
5691 kPa	1478.2
5724 kPa	1478.4
5757 kPa	1478.6
